Experimental data taken from ChEMBL document CHEMBL1129506, “2,4-Diarylpyrrolidine-3-carboxylic acids--potent ETA selective endothelin receptor antagonists. 1. Discovery of A-127722” (J Med Chem, 1996).

How the values were obtained:
Endothelin receptor = target: T1, Endothelin receptor (Rattus norvegicus, UniProt P26684+P21451); test: Inhibition of phosphoinositol hydrolysis of MMQ cells.; assay type: functional, cell-based
T1 sequence (P26684 whole entry): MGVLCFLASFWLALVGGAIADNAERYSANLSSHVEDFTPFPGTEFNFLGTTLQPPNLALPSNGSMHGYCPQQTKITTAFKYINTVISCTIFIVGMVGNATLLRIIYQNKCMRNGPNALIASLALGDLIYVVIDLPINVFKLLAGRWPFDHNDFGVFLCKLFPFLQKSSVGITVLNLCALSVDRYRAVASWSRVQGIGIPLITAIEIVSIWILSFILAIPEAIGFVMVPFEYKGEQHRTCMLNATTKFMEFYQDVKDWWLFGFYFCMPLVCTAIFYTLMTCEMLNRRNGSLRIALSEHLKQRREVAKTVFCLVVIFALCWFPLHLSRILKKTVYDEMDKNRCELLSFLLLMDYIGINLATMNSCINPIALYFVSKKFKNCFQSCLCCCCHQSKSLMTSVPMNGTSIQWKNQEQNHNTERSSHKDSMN
T1 sequence (P21451 whole entry): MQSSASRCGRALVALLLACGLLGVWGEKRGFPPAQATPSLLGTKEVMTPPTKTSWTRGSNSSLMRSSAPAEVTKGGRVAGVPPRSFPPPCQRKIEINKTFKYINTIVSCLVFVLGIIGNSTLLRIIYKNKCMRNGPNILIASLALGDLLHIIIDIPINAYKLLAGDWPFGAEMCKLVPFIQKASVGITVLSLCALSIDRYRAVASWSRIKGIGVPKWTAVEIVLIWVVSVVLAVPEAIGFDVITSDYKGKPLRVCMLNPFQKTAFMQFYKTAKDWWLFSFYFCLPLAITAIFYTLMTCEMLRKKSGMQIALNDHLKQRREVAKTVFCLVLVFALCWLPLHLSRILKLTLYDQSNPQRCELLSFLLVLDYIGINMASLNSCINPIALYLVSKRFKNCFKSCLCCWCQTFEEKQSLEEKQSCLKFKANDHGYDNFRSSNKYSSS

[1] = target: T2, Endothelin receptor type B (Sus scrofa, UniProt P35463); test: Inhibitory activity measured against Endothelin B receptor binding to porcine cerebellum; assay type: tissue-based
T2 sequence (P35463 whole entry): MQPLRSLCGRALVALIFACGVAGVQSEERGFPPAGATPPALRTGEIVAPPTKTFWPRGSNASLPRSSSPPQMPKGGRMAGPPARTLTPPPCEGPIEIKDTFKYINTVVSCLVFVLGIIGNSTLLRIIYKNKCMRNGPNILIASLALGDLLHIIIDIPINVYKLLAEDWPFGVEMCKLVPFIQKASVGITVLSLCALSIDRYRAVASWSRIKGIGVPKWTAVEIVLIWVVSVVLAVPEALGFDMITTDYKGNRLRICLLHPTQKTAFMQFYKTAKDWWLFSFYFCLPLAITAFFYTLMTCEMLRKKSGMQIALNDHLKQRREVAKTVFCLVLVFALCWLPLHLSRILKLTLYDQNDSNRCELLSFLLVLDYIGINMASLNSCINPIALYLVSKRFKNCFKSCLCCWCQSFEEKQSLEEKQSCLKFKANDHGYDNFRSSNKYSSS

[2] = target: T3, Endothelin receptor type B (Homo sapiens, UniProt P24530); test: Radioligand binding selectivity to human Endothelin B receptor in chinese hamster ovary cells; assay type: cell-based, CHO
T3 sequence (P24530 whole entry): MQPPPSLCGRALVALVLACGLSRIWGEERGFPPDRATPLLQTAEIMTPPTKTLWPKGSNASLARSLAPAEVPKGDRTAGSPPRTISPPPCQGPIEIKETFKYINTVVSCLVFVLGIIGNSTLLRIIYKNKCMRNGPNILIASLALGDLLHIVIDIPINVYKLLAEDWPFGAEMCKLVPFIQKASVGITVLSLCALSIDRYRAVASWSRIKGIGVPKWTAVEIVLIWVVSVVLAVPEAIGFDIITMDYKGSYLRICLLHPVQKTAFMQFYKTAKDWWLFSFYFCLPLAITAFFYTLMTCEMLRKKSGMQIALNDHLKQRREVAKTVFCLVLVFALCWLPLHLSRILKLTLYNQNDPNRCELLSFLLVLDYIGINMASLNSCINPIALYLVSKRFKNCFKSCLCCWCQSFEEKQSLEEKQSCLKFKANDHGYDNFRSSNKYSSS

Endothelin-1 receptor [3] = target: T4, Endothelin-1 receptor (Homo sapiens, UniProt P25101); test: Radioligand binding selectivity to human Endothelin A receptor in chinese hamster ovary cells; assay type: cell-based, CHO
T4 sequence (P25101 whole entry): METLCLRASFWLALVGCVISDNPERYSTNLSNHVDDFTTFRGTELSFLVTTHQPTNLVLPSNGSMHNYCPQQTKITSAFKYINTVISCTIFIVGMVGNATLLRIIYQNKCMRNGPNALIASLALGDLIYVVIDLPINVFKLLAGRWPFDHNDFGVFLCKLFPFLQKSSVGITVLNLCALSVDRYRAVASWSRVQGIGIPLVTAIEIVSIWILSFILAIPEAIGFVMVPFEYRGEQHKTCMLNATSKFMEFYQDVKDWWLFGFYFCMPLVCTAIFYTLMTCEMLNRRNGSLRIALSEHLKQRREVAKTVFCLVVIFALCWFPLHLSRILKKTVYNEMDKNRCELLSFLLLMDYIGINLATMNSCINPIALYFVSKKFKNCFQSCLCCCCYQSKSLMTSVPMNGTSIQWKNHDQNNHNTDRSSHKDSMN

Endothelin-1 receptor [4] = target: T5, Endothelin-1 receptor (Rattus norvegicus, UniProt P26684); test: Inhibitory activity against the Endothelin A receptor of rat MMQ cells; assay type: cell-based
T5 sequence (P26684 whole entry): T1 sequence (P26684 whole entry)

[5] = target: T2, Endothelin receptor type B; test: Inhibitory activity was measured against Endothelin B receptor binding to porcine cerebellum; inactive; assay type: tissue-based
[6] = target: T3, Endothelin receptor type B; test: Inhibitory activity against human Endothelin B receptor in chinese hamster ovary cells; assay type: cell-based, CHO
Endothelin-1 receptor [7] = target: T4, Endothelin-1 receptor; test: Inhibitory activity against human Endothelin A receptor in chinese hamster ovary cells; assay type: cell-based, CHO

Compound | IC50 (Endothelin receptor) [µM] | IC50 [1] [µM] | IC50 [2] [µM] | IC50 (Endothelin-1 receptor [3]) [µM] | IC50 (Endothelin-1 receptor [4]) [µM] | IC50 [5] | Ki [6] [µM] | Ki (Endothelin-1 receptor [7]) [µM]
CCCN(C)C(=O)CN1C[C@@H](c2ccc3c(c2)OCO3)[C@H](C(=O)O)[C@H]1c1ccc(OC)cc1 | 0.00912 | 2.9 | 4.57 | 0.0213 | 0.00663 |  |  | 
CCCCN(C)C(=O)CN1C[C@@H](c2ccc3c(c2)OCO3)[C@H](C(=O)O)[C@H]1c1ccc(OC)cc1 | 0.00097 | 1.39 | 1.08 | 0.00488 | 0.00471 |  |  | 
CCCCNC(=O)CN1C[C@@H](c2ccc3c(c2)OCO3)[C@H](C(=O)O)[C@H]1c1ccc(OC)cc1 | 0.01 | 1.26 |  |  | 0.043 |  |  | 
CCCCN(CCCC)C(=O)CN1CC(c2ccc3c(c2)OCO3)C(C(N)=O)C1c1ccc(OC)cc1 (centres undefined) |  |  |  |  | 0.058 | Not Active |  | 
CCCN(CCC)C(=O)CN1C[C@@H](c2ccc3c(c2)OCO3)[C@H](C(=O)O)[C@H]1c1ccc(OC)cc1 | 0.00024 | 0.598 | 0.397 | 0.00055 |  |  |  | 
CCCNC(=O)CN1C[C@@H](c2ccc3c(c2)OCO3)[C@H](C(=O)O)[C@H]1c1ccc(OC)cc1 | 0.0246 | 0.398 | 0.579 | 0.0453 | 0.0172 |  |  | 
COCCN(CCOC)C(=O)CN1C[C@@H](c2ccc3c(c2)OCO3)[C@H](C(=O)O)[C@H]1c1ccc(OC)cc1 | 0.00491 | 1.07 |  |  | 0.00445 |  |  | 
CCCCN(CCC)C(=O)CN1C[C@@H](c2ccc3c(c2)OCO3)[C@H](C(=O)O)[C@H]1c1ccc(OC)cc1 | 0.00025 | 0.04 | 0.211 | 0.00081 | 0.00022 |  |  | 
C=CCNC(=O)CN1C[C@@H](c2ccc3c(c2)OCO3)[C@H](C(=O)O)[C@H]1c1ccc(OC)cc1 | 0.0165 | 0.889 |  |  | 0.0342 |  |  | 
Cc1noc(NS(=O)(=O)c2cccc3c(N(C)C)cccc23)c1C [BMS-182874] |  |  |  |  |  |  | > 50 | 
CCCc1cc(C(=O)O)ccc1OC(C(=O)NS(=O)(=O)c1ccc(C(C)C)cc1)c1ccc2c(c1)OCO2 [L-754142] |  |  |  |  |  |  | 0.0054 | 0.00013
COc1ccc(C2(O)OC(=O)C(c3ccc4c(c3)OCO4)=C2Cc2cc(OC)c(OC)c(OC)c2)cc1 (centres undefined) [PD-156707] |  |  |  |  |  |  | 0.139 | 
